Laboratory results: patent US10577322B2, “5-methoxytryptophan and its derivatives and uses thereof” (National Health Research Institutes, priority 2015, dated 2020)

What was measured:
COX-2 [1] = assay: LPS-induced COX-2 protein expression in RAW264.7 cells (immunoblot); format: cell-based, mouse; conditions: LPS 8 h
Procedure: Mouse RAW264.7 macrophages were from the American Type Culture Collection and cultured in DMEM containing 10% FBS. […] The duration of LPS (100 ng/ml) treatment varied depending on the experiment.
Cellular protein were resolved by 5% to 20% SDS-PAGE and transferred to nitrocellulose membranes and blotted with specific antibodies as previously described (Lee, G. L., et al.).
After pretreating mouse macrophage RAW264.7 cells with different concentrations of 5-MTP for 30 min, cells were stimulated with LPS for 8 h. Cell lysates were immunoblotted with antibodies for COX-2 or β-actin. In addition, RAW264.7 cells were transfected with COX-2 promoter-luciferase plasmid. After 24 h transfection, the cells were incubated with LPS for 8 h. Luciferase activity was measured.

COX-2 [2] = assay: LPS-induced COX-2 expression in peritoneal macrophages (western blot); format: cell-based; conditions: primary mouse peritoneal macrophages, LPS 8 h
Procedure: For peritoneal macrophage isolation, C57BL/6J mice were injected intraperitoneally with 2 ml of 4% thioglycollate. Four days after injection, the peritoneal cavity was washed with 5 ml of ice-cold RPMI1640 medium, and cells from the peritoneal exudates were collected by centrifugation, and suspended in RPMI1640 medium, then seeded on 15-cm dishes and allowed to adhere for 4 h. Floating cells were washed out, and adherent cells were used as peritoneal macrophages in the experiments. The cells were incubated with or without LPS (100 ng/ml) for the indicated time before each experiment, as in the protocol for the RAW264.7 cells.
Furthermore, peritoneal macrophages were stimulated with LPS with or without 5-MTP. After 8 h, COX-2 protein expression was determined by western blot. The experiments were repeated 3 times with similar results.

TNF-α = assay: LPS-induced TNF-α production in RAW264.7 cells; format: cell-based, mouse; conditions: data not shown
CLP = assay: Cecal ligation and puncture (CLP) model, survival; format: in vivo, mice
From the text: To confirm the protective effect of 5-MTP in endotoxemia, we used cecal ligation and puncture (CLP) model in mice. 5-MTP-afforded protection was also observed in mice challenged with CLP.

peritoneal macrophages = assay: Ex vivo cytokine production of peritoneal macrophages from endotoxemic mice; format: in vivo; conditions: macrophages isolated 8 h after LPS, 5-MTP 23.4 mg/kg, cultured 24 h
Procedure: To further confirm that 5-MTP deactivates peritoneal macrophages during endotoxemia, we evaluated the effect of 5-MTP on IL-1β and IL-6 production ex vivo in peritoneal macrophages isolated from untreated or 5-MTP-treated endotoxemic mice. Peritoneal macrophages were isolated 8 h after LPS injection with saline or 5-MTP (23.4 mg/kg) and cultured with medium alone. After 24 h, proinflammatory cytokines were measured by ELISA (n=3).

neutrophil infiltration = assay: Neutrophil infiltration in lung tissues (Ly6G staining); format: in vivo, mice
Procedure: Prior to immunohistochemical detection of COX-2, iNOS, Ly6g, or cleaved caspase-3 in lung sections, sections were deparaffinized with xylene, progressively rehydrated through graded alcohols. Antigen sites were retrieved by heating the sections on slides in pH 8 EDTA antigen. retrieval (Trilogy; Cell Marque Corporation) in electric pressure cooker for 15 min. […] All antibodies described hereafter were diluted in blocking buffer. Sections were incubated at room temperature for 2 h with primary antibody and then washed in PBST. The sections were incubated with primary antibody amplifier quanta (Thermo) for 10 minutes. After rinsing with PBST, the sections were incubated with HRP Polymer Quanto (Thermo) for 10 minutes and washed three times with PBST. COX-2, iNOS, Ly6g and cleaved caspase-3 were visualized by the addition of DAB Quanto Chromogen: Substrate for 3 minutes. Tissues were also counterstained with hematoxylin.
Thirty min after saline or 5-MTP administration, mice were injected intraperitoneally with LPS at 4 h, 12 h, 16 h and 24 h. Paraffin-embedded lung tissue specimens were subjected to immunohistochemical Ly6G staining for determination of neutrophil infiltration in lung tissues. The results are shown in FIG. 8A, in which scale bars represent 100 μm.

Myeloperoxidase (MPO) = assay: MPO activity assay in lung tissues; format: in vivo, mice; conditions: 5-MTP 23.4 mg/kg, 16 h
Procedure: Myeloperoxidase (MPO) activity of lung tissue was assayed by Myeloperoxidase fluorometric detection kit (Enzo Life Sciences). In brief, lung tissue specimens were homogenized by Tissuelyser II (Qiagen) in tissue protein extraction buffer (pH 7.4 25 mM Tris buffer, 150 mM NaCl, 0.5% sodium deoxycholate, 2% NP-40 and 0.2% SDS), and centrifuged at 12,000×g for […] at 4° C. The supernatants were removed and the pellets were homogenized by Tissuelyser II for 30 seconds in 1 ml assay buffer with 0.5% hexadecyltrimethylammonium, and then samples were frozen, thawed three times, andcentrifuged at 8,000×g for 20 min. Collected supernatants and standard were mixed with reaction cocktail (50 μM detection reagent and 20 μM hydrogen peroxide in 1X assay buffer at room temperature in the dark. After 30 min incubation, MPO activity was determined by measuring the fluorescence intensity at excitation 530 nm and emission at 600 nm in a fluorescent plate reader.
In addition, MPO activity was determined in lung tissues of mice treated with saline or LPS in the presence or absence of 5-MTP (23.4 mg/kg) for 16 h (n=6 mice/group).

ligated carotid arteries = assay: Neointima formation model of carotid artery ligation; format: in vivo, mice; conditions: 100 mg/kg IP 3 times a week, four weeks after ligation
Procedure: Approximately 12-week-old male C57BL/6 wild-type mice ational Laboratory Animal Center, Taiwan) were subjected to a neointima formation model by ligating the left common carotid artery (LCCA). The Institutional. Animal Care and Use Committee of National Health Research Institutes, Taiwan approved all experimental procedures (#NHRI-IACUC-101144-A). Mice were anesthetized with tribromoethanol solution at a dose of 250 mg/kg by IP injection. After assessing the level of anesthesia by checking the pedal reflex, the LCCA was exposed through a midline incision in the neck. […] Following surgery, mice were treated with vehicle (PBS) or 100 mg/kg of 5-MTP (Sigma, M4001) by IP injection 3 times a week. 5-MTP was dissolved in 0.05 N HCl (made in PBS) first, pH adjusted to 7.4 by NaOH, and then a stock solution of 6.5 mg/mL was prepared with PBS. The stock solution was then sterilized by filtering through a 0.22 μm-filter before use. At indicated time points (4, 7, and 28 d after surgery), mice were anesthetized with tribromoethanol solution (500-750 mg/kg), perfused with saline, followed by 10% neutral-buffered-formalin. The contralateral control (right common carotid artery) and ligated LCCA were then carefully dissected, excised, and immersed in 10% formalin before processing and embedding in paraffin. […]

COc1ccc2[nH]cc(C[C@H](N)C(=O)O)c2c1 [5-MTP, 5-methoxytryptophan]
LPS-induced COX-2 protein expression (COX-2 [1]): blocked
LPS-induced COX-2 expression (COX-2 [2]): inhibited
TNF-α production (TNF-α): inhibited
duration of improved survival (CLP): maintained up to day 6
survival at day 2 (CLP; 5-MTP 30 mins after surgery): 44.4%
ex vivo IL-1β production (peritoneal macrophages): significantly suppressed
ex vivo IL-6 production (peritoneal macrophages): significantly suppressed
neutrophil infiltration in lung tissues (neutrophil infiltration; 5-MTP at 100 mg/kg): reduced the infiltration almost to the basal level
neutrophil infiltration in lung tissues (neutrophil infiltration; LPS, 4 h, 12 h, 16 h and 24 h): dose-dependently reduced
lung MPO activity (Myeloperoxidase (MPO)): reduced neutrophil infiltration to the basal level
intima/media area ratio (ligated carotid arteries): 0.58±0.11
intimal thickening (ligated carotid arteries): reduced
